According to patent publication US20100093536A1, “CONTROL OF GRASSY WEEDS WITH VINYLGLYCINES AND VINYLGLYCINE-PRODUCING ORGANISMS” (THE STATE OF OREGON ACTING BY AND THROUGH THE STATE BOARD …, priority 2008, published 2010):

Columns and labels:
Type in all cases: in vivo
[1] = tested on: Poa annua (annual bluegrass) seeds; assay: Standard GAF Bioassay System (Standard Poa Bioassay), seed germination scored after 7 days; set-up: key to GERMINATION SCORE IN THE POA BIOASSAY (±Standard Error of the Mean) / GERMINATION SCORE (±Standard Error of the Mean): germination score, 0 = no germination to 4.0 = first true leaf emerged; details: for GAF-like activity in the Standard Poa Bioassay System, in words: pure compounds
Protocol: The seed of Poa annua (or other test seeds) were surface-sterilized by placing two to five grams of seeds in a 50 ml glass beaker, covering the seeds with a 50% (v/v) solution of H2SO4, and stirring vigorously for 5 minutes. The seed/acid mixture was filtered through a Gooch crucible and repeatedly rinsed with tap water to remove residual acid. The seeds were then placed in a beaker and covered with bleach (Clorox®, NaOCl, 5.25%) containing 1% (v/v) polyoxethylene sorbitan monolaurate (Tween®-20). The seeds were stirred for 5 minutes and then repeatedly rinsed with sterile deionized water and placed in a sterile Petri dish. The seeds were used immediately while wet or dried (spread in a thin layer and allowed to dry under a laminar flow hood with the Petri dish lid ajar for 4 to 8 hours) to prevent premature germination.
Bioassays for GAF activity were performed with Poa annua (annual bluegrass) seeds unless otherwise indicated. For each concentration of each test solution, 200 μl aliquots of solution were distributed to each of three wells of a sterile Costar® forty-eight well tissue culture plate (Corning® Costar® Number 3548). Three surface-sterilized Poa annua seeds were aseptically transferred to each well and submerged in the liquid, providing a total of nine observations for each concentration of each solution tested. The lid of the tissue culture plate was sealed with Parafilm® and the plate was placed in a germinator at 20° C. (8 hour day length at a light intensity of 50 μmol/m^2/s, 16 hour dark period) for seven days. Germination was scored on the basis of the following four-point system: • Score 0: No visible signs of germination. • Score 0.5: Seed coat split but plumule and coleorhiza are not visible. • Score 1.0: Plumule and coleorhiza visible. Plumule chlorotic and shorter than length of seed. Root not yet visible. • Score 1.5: Plumule still shorter than length of seed, but root is clearly visible. • Score 2.0: Plumule approximately equal in length to the seed. Root elongated. • Score 2.5: Plumule obviously longer than length of seed. First true leaf still enclosed in coleoptile. • Score 3.0: First true leaf emerged from coleoptile and green. Emerged portion of the leaf is obviously shorter than the coleoptile. • Score 3.5: First true leaf emerged from coleoptile and green. Emerged portion of the leaf is approximately equal in length to the coleoptile. • Score 4.0: First true leaf emerged from coleoptile and green. Emerged portion of the leaf is obviously longer than the coleoptile.

Poa annua seeds [2] = assay: Soil-based test for GAF activity, Poa annua only; details: sprayed twice with 50 mL in 0.1% Tween 20, evaluated 12 days after first treatment
Protocol: (§1) Soil-based tests for GAF activity were performed as follows: Woodburn sandy loam obtained from a Willamette Valley site was used in all soil-based experiments. The soil was dried for two days at 100° F. and screened through a ⅛-inch mesh prior to use. All flats were lined with black ground cloth. Small half-flats (25×25 cm) were filled with 1200 grams of soil. Larger flats (25×50 cm) were filled with 2500 grams of soil. The soil in the flats was fully saturated with water and left to drain in a greenhouse mist chamber for two days prior to seeding.
Soil-based tests involving only Poa annua (annual bluegrass) were conducted in half-flats. A frame covering ½- inch around the margins of the flat was placed on the soil surface, and the soil area within the frame was seeded with 0.3 grams of Poa annua seeds (leaving a ½-inch unseeded border). The seeds were sprayed lightly with distilled water and placed in a growth chamber set at 20° C. with a photoperiod consisting of 8-hour days (50 μEinsteins) and 16-hour nights. […] The treatments were evaluated and photographic records taken 12 days after the initial treatment (14 days from seeding). […]
The effect of AVG on germination of seeds of Poa annua also was determined in a soil-based system using the protocol previously described. […]
The effect of AOA on the germination of Poa annua also was determined in a soil-based system. […]

Poa annua seeds [3] = assay: Soil-based test with established perennial ryegrass seedlings: germination of Poa annua seeds; details: sprayed twice with 50 mL in 0.1% Tween 20, evaluated 12 days after first treatment
Protocol: as §1
(§2) Soil-based tests involving both Poa annua seeds and established perennial ryegrass (Lolium perenne) seedlings were conducted in full sized flats (25×50 cm). After preparation of the soil as described above, five rows of perennial ryegrass seed (0.19 grams seed/row) were planted parallel to the short axis of the flat. The flats were placed in a mist chamber in the greenhouse for one week, and then transferred to a greenhouse bench where they were watered once or twice daily (as needed) with a fogging nozzle for the next 13 days. The ryegrass seedlings were fertilized at the end of the first week on the greenhouse bench. […] The treatments were evaluated and photographic records taken 12 days after the initial treatment (14 days from seeding with Poa annua). […]

[4] = tested on: established perennial ryegrass (Lolium perenne) seedlings; assay: Soil-based test with established perennial ryegrass seedlings: tolerance of the ryegrass; details: at a concentration that arrested germination of Poa annua seeds
Protocol: as §1, §2

[5] = GAF Conc. 0, metal 12.5 μM, score 4.0 = normal germination, 1.0 = arrest
[6] = GAF Conc. 2X plus metal 12.5 μM

| Compound | GERMINATION SCORE IN THE POA BIOASSAY (±Standard Error of the Mean) ([1]; concentration tested 0.03 mM) | GERMINATION SCORE IN THE POA BIOASSAY (±Standard Error of the Mean) ([1]; concentration tested 0.1 mM) | GERMINATION SCORE IN THE POA BIOASSAY (±Standard Error of the Mean) ([1]; concentration tested 0.3 mM) | GERMINATION SCORE IN THE POA BIOASSAY (±Standard Error of the Mean) ([1]; concentration tested 1.0 mM) | GERMINATION SCORE IN THE POA BIOASSAY (±Standard Error of the Mean) ([1]; concentration tested 3.0 mM) | GERMINATION SCORE IN THE POA BIOASSAY (±Standard Error of the Mean) ([1]; concentration tested 10.0 mM) | GERMINATION SCORE IN THE POA BIOASSAY (±Standard Error of the Mean) ([1]; concentration tested 30.0 mM) | GAF-like activity in the Standard Poa Bioassay System, in words [1] | effect on germination of seeds of Poa annua in a soil-based system (Poa annua seeds [2]) | germination of Poa annua seeds seeded between rows of established ryegrass (Poa annua seeds [3]) | effect on established perennial ryegrass seedlings [4] | POA BIOASSAY SCORES (±Standard Error of the Mean) [1, 5] | POA BIOASSAY SCORES (±Standard Error of the Mean) ([1]; GAF Conc. 0, metal 25 μM) | POA BIOASSAY SCORES (±Standard Error of the Mean) ([1]; GAF Conc. 0, metal 50 μM) | POA BIOASSAY SCORES (±Standard Error of the Mean) ([1]; GAF Conc. 0, metal 100 μM) | POA BIOASSAY SCORES (±Standard Error of the Mean) ([1]; GAF Conc. 0, metal 200 μM) | POA BIOASSAY SCORES (±Standard Error of the Mean) [1, 6] | POA BIOASSAY SCORES (±Standard Error of the Mean) ([1]; GAF Conc. 2X plus metal 25 μM) | POA BIOASSAY SCORES (±Standard Error of the Mean) ([1]; GAF Conc. 2X plus metal 50 μM) | POA BIOASSAY SCORES (±Standard Error of the Mean) ([1]; GAF Conc. 2X plus metal 100 μM) | also measured |
| --- | --- | --- | --- | --- | --- | --- | --- | --- | --- | --- | --- | --- | --- | --- | --- | --- | --- | --- | --- | --- | --- |
| NOCC(=O)O [AOA, 2-Aminooxyacetic acid, reference compound] | 2.5 ± 0.1 | 1.7 ± 0.1 | 1.2 ± 0.1 | 1.0 ± 0.0 | 1.0 ± 0.0 | 1.0 ± 0.0 | 0.9 ± 0.1 | arrested the germination | arrested germination | arrested as expected | some damage was evident |  |  |  |  |  |  |  |  |  |  |
| NCCOC=CC(N)C(=O)O (stereo not shown) [AVG, 2-amino-4-aminoethoxy-but-3-enoic acid, reference compound] | 2.3 ± 0.1 | 1.3 ± 0.1 | 1.0 ± 0.0 | 1.0 ± 0.0 | 1.0 ± 0.0 | 1.0 ± 0.0 | 0.9 ± 0.1 | arrested the germination | arrest germination | completely arrested germination | little if any effect |  |  |  |  |  |  |  |  |  |  |
| CC(C)C[C@H](N)C(=O)O [Leucine] |  |  |  |  |  |  |  |  |  |  |  |  |  |  |  |  |  |  |  |  | GERMINATION SCORE (±Standard Error of the Mean) ([1]; WH6 culture filtrate 0, amino acid 0.3 mM): 3.9 ± 0.2; GERMINATION SCORE (±Standard Error of the Mean) ([1]; WH6 culture filtrate 0, amino acid 1 mM): 4.0 ± 0.0; GERMINATION SCORE (±Standard Error of the Mean) ([1]; WH6 culture filtrate 0, amino acid 3 mM): 3.6 ± 0.2; GERMINATION SCORE (±Standard Error of the Mean) ([1]; WH6 culture filtrate 0, amino acid 10 mM): 3.0 ± 0.0; GERMINATION SCORE (±Standard Error of the Mean) ([1]; WH6 culture filtrate 0, amino acid 30 mM): 1.7 ± 0.1; GERMINATION SCORE (±Standard Error of the Mean) ([1]; WH6 culture filtrate 0.1X plus amino acid 0.3 mM): 1.5 ± 0.0; GERMINATION SCORE (±Standard Error of the Mean) ([1]; WH6 culture filtrate 0.1X plus amino acid 1 mM): 1.5 ± 0.3; GERMINATION SCORE (±Standard Error of the Mean) ([1]; WH6 culture filtrate 0.1X plus amino acid 3 mM): 3.6 ± 0.1; GERMINATION SCORE (±Standard Error of the Mean) ([1]; WH6 culture filtrate 0.1X plus amino acid 10 mM): 3.4 ± 0.1; GERMINATION SCORE (±Standard Error of the Mean) ([1]; WH6 culture filtrate 0.1X plus amino acid 30 mM): 2.8 ± 0.1 |
| [Cl][Ni][Cl] [NiCl2] |  |  |  |  |  |  |  |  |  |  |  | 2.78 ± 0.05 | 2.47 ± 0.10 | 1.78 ± 0.09 | 1.44 ± 0.06 | 1.00 ± 0.00 | 1.00 ± 0.00 | 1.00 ± 0.00 | 1.00 ± 0.00 | 1.00 ± 0.00 | POA BIOASSAY SCORES (±Standard Error of the Mean) ([1]; GAF Conc. 2X plus metal 200 μM): 1.00 ± 0.00 |
| [Cl-].[Cl-].[Zn+2] [ZnCl2] |  |  |  |  |  |  |  |  |  |  |  | 4.00 ± 0.00 | 4.00 ± 0.00 | 4.00 ± 0.00 | 3.5 ± 0.00 | 3.00 ± 0.00 | 1.00 ± 0.00 | 1.00 ± 0.00 | 1.00 ± 0.00 | 1.00 ± 0.00 | POA BIOASSAY SCORES (±Standard Error of the Mean) ([1]; GAF Conc. 2X plus metal 200 μM): 1.00 ± 0.00 |
